Organism: Rattus norvegicus
Test: DrugMatrix - Regimen: Daily Repeat
Format: toxicity, organism-based, Sprague-Dawley
Design: regimen Daily Repeat, gender Male, age 6-8 weeks
Settings: in vivo, iv, […], dose 2.6 mg/Kg, dose level Low, vehicle 100 % SALINE; for ABSOLUTE BASOPHIL / ABSOLUTE EOSINOPHIL / ABSOLUTE LYMPHOCYTE / ABSOLUTE MONOCYTE / ABSOLUTE SEGMENTED NEUTROPHIL / BASOPHIL / EOSINOPHIL / ERYTHROCYTE COUNT / HEMATOCRIT / HEMOGLOBIN / LEUKOCYTE COUNT / LYMPHOCYTE / MEAN CORPUSCULAR HEMOGLOBIN / MEAN CORPUSCULAR HEMOGLOBIN CONCENTRATION / MEAN CORPUSCULAR VOLUME / MONOCYTE / NEUTROPHIL / NUCLEATED RED BLOOD CELLS / PLATELET COUNT: tissue Blood; for ALANINE AMINOTRANSFERASE / ALBUMIN / ALKALINE PHOSPHATASE / ASPARTATE AMINOTRANSFERASE / BLOOD UREA NITROGEN / CARBON DIOXIDE / CHLORIDE / CHOLESTEROL / CREATINE PHOSPHOKINASE / CREATININE / GLUCOSE / LACTATE DEHYDROGENASE / LIPASE / PHOSPHORUS / POTASSIUM / SODIUM / TOTAL BILIRUBIN / TOTAL PROTEIN / URIC ACID: tissue Plasma

Nc1ccn([C@@H]2O[C@H](CO)[C@@H](O)C2(F)F)c(=O)n1 [GEMCITABINE]
ABSOLUTE BASOPHIL (72 h, time 3 day): 0 CELLS/uL | ABSOLUTE EOSINOPHIL (72 h, time 3 day): 0 CELLS/uL | ABSOLUTE LYMPHOCYTE (72 h, time 3 day): 7048.67 CELLS/uL | ABSOLUTE MONOCYTE (72 h, time 3 day): 0 CELLS/uL | ABSOLUTE SEGMENTED NEUTROPHIL (72 h, time 3 day): 484.67 CELLS/uL | BASOPHIL (72 h, time 3 day): 0% | EOSINOPHIL (72 h, time 3 day): 0% | ERYTHROCYTE COUNT (72 h, time 3 day): 5.03 x10E6/uL | HEMATOCRIT (72 h, time 3 day): 31.87% | HEMOGLOBIN (72 h, time 3 day): 12.73 G/DL | LEUKOCYTE COUNT (72 h, time 3 day): 7.53 x10E3/uL | LYMPHOCYTE (72 h, time 3 day): 93.67% | MEAN CORPUSCULAR HEMOGLOBIN (72 h, time 3 day): 25.37 pg | MEAN CORPUSCULAR HEMOGLOBIN CONCENTRATION (72 h, time 3 day): 39.97 G/DL | MEAN CORPUSCULAR VOLUME (72 h, time 3 day): 63.43 fL | MONOCYTE (72 h, time 3 day): 0% | NEUTROPHIL (72 h, time 3 day): 6.33% | NUCLEATED RED BLOOD CELLS (72 h, time 3 day): 0 /100WBC | PLATELET COUNT (72 h, time 3 day): 1190.67 x10E3/uL | ALANINE AMINOTRANSFERASE (72 h, time 3 day): 55.33 u/L | ALBUMIN (72 h, time 3 day): 4.03 G/DL | ALKALINE PHOSPHATASE (72 h, time 3 day): 332.67 u/L | ASPARTATE AMINOTRANSFERASE (72 h, time 3 day): 110 u/L | BLOOD UREA NITROGEN (72 h, time 3 day): 16.67 mg/dL | CARBON DIOXIDE (72 h, time 3 day): 25 mmol/L | CHLORIDE (72 h, time 3 day): 97.67 MEQ/L | CHOLESTEROL (72 h, time 3 day): 76.67 mg/dL | CREATINE PHOSPHOKINASE (72 h, time 3 day): 485.33 u/L | CREATININE (72 h, time 3 day): 0.14 mg/dL | GLUCOSE (72 h, time 3 day): 175.33 mg/dL | LACTATE DEHYDROGENASE (72 h, time 3 day): 141.67 u/L | LIPASE (72 h, time 3 day): 9 u/L | PHOSPHORUS (72 h, time 3 day): 12.07 mg/dL | POTASSIUM (72 h, time 3 day): 6.4 MEQ/L | SODIUM (72 h, time 3 day): 141.6 MEQ/L | TOTAL BILIRUBIN (72 h, time 3 day): 0.2 mg/dL | TOTAL PROTEIN (72 h, time 3 day): 5.93 G/DL | URIC ACID (72 h, time 3 day): 1.5 mg/dL | ABSOLUTE BASOPHIL (120 h, time 5 day): 0 CELLS/uL | ABSOLUTE EOSINOPHIL (120 h, time 5 day): 0 CELLS/uL | ABSOLUTE LYMPHOCYTE (120 h, time 5 day): 4224 CELLS/uL | ABSOLUTE MONOCYTE (120 h, time 5 day): 19 CELLS/uL | ABSOLUTE SEGMENTED NEUTROPHIL (120 h, time 5 day): 23.67 CELLS/uL | BASOPHIL (120 h, time 5 day): 0% | EOSINOPHIL (120 h, time 5 day): 0% | ERYTHROCYTE COUNT (120 h, time 5 day): 5.09 x10E6/uL | HEMATOCRIT (120 h, time 5 day): 32.1% | HEMOGLOBIN (120 h, time 5 day): 12.83 G/DL | LEUKOCYTE COUNT (120 h, time 5 day): 4.27 x10E3/uL | LYMPHOCYTE (120 h, time 5 day): 99% | MEAN CORPUSCULAR HEMOGLOBIN (120 h, time 5 day): 25.2 pg | MEAN CORPUSCULAR HEMOGLOBIN CONCENTRATION (120 h, time 5 day): 39.97 G/DL | MEAN CORPUSCULAR VOLUME (120 h, time 5 day): 63.1 fL | MONOCYTE (120 h, time 5 day): 0.33% | NEUTROPHIL (120 h, time 5 day): 0.67% | NUCLEATED RED BLOOD CELLS (120 h, time 5 day): 0.33 /100WBC | PLATELET COUNT (120 h, time 5 day): 699.67 x10E3/uL | ALANINE AMINOTRANSFERASE (120 h, time 5 day): 46.33 u/L | ALBUMIN (120 h, time 5 day): 4.17 G/DL | ALKALINE PHOSPHATASE (120 h, time 5 day): 368 u/L | ASPARTATE AMINOTRANSFERASE (120 h, time 5 day): 127.67 u/L | BLOOD UREA NITROGEN (120 h, time 5 day): 13.33 mg/dL | CARBON DIOXIDE (120 h, time 5 day): 24.67 mmol/L | CHLORIDE (120 h, time 5 day): 104 MEQ/L | CHOLESTEROL (120 h, time 5 day): 70.67 mg/dL | CREATINE PHOSPHOKINASE (120 h, time 5 day): 350.33 u/L | CREATININE (120 h, time 5 day): 0.12 mg/dL | GLUCOSE (120 h, time 5 day): 151.67 mg/dL | LACTATE DEHYDROGENASE (120 h, time 5 day): 93.33 u/L | LIPASE (120 h, time 5 day): 8 u/L | PHOSPHORUS (120 h, time 5 day): 11.03 mg/dL | POTASSIUM (120 h, time 5 day): 6.21 MEQ/L | SODIUM (120 h, time 5 day): 143.67 MEQ/L | TOTAL BILIRUBIN (120 h, time 5 day): 0.1 mg/dL | TOTAL PROTEIN (120 h, time 5 day): 6.03 G/DL | URIC ACID (120 h, time 5 day): 1.63 mg/dL

— ChEMBL document CHEMBL3885881, “DrugMatrix”
